According to PubChem BioAssay AID1259407 (Chemical Carcinogenesis Research Information System (CCRIS), 2018):
Active and inactive are the calls of the source. No rule for the calls is given here.

System: CCRIS mutagenicity, Ames/micronucleus/aberration tests
Test: CCRIS mutagenicity studies

Measured: mutagenic call

C#C[C@]1(O)CC[C@H]2[C@@H]3CCc4cc(O)ccc4[C@H]3CC[C@@]21C
active: End Point: IN VITRO CHROMOSOMAL ABERRATIONS, Test System: CHINESE HAMSTER CELL DON (22;XY), Metabolic Activation: NONE active; positive (ploidy changes) | End Point: IN VITRO CHROMOSOMAL ABERRATIONS, Test System: CHO CELLS, Metabolic Activation: NONE active; positive | End Point: IN VITRO CHROMOSOMAL ABERRATIONS, Test System: HUMAN (FEMALE) PERIPHERAL BLOOD LYMPHOCYTES, Metabolic Activation: RAT, LIVER, S-9, WITH NADP ADDITION active; positive (structural changes)
inactive: End Point: IN VITRO CHROMOSOMAL ABERRATIONS, Test System: HUMAN (FEMALE) PERIPHERAL BLOOD LYMPHOCYTES, Metabolic Activation: NONE inactive; negative | End Point: IN VITRO CHROMOSOMAL ABERRATIONS, Test System: HUMAN (FEMALE) PERIPHERAL BLOOD LYMPHOCYTES, Metabolic Activation: RAT, LIVER, S-9, NO NADP inactive; negative | End Point: IN VITRO CHROMOSOMAL ABERRATIONS, Test System: HUMAN PERIPHERAL LYMPHOCYTES, Metabolic Activation: NONE inactive; negative | End Point: IN VITRO CHROMOSOMAL ABERRATIONS, Test System: HUMAN PERIPHERAL LYMPHOCYTES, Metabolic Activation: RAT, LIVER, S-9, AROCLOR 1254 inactive; negative | End Point: IN VIVO MICRONUCLEUS, Test System: BONE MARROW POLYCHROMATIC ERYTHROCYTES, Species: MOUSE, Strain/Sex: NMRI/FEMALE, Route: INTRAGASTRIC inactive; negative | End Point: IN VIVO MICRONUCLEUS, Test System: BONE MARROW POLYCHROMATIC ERYTHROCYTES, Species: MOUSE, Strain/Sex: SWISS ALBINO, Route: ORAL (GAVAGE) inactive; negative | Test System: AMES SALMONELLA TYPHIMURIUM, Strain/Indicator: TA97, Metabolic Activation: HAMSTER, LIVER, S-9, AROCLOR 1254 (10 OR 30%), Method: PREINCUBATION inactive; negative | Test System: AMES SALMONELLA TYPHIMURIUM, Strain/Indicator: TA97, Metabolic Activation: NONE, Method: PREINCUBATION inactive; negative | Test System: AMES SALMONELLA TYPHIMURIUM, Strain/Indicator: TA97, Metabolic Activation: RAT, LIVER, S-9, AROCLOR 1254 (10%), Method: PREINCUBATION inactive; negative | Test System: AMES SALMONELLA TYPHIMURIUM, Strain/Indicator: TA97, Metabolic Activation: RAT, LIVER, S-9, AROCLOR 1254 (30%), Method: PREINCUBATION inactive; negative | Test System: AMES SALMONELLA TYPHIMURIUM, Strain/Indicator: TA98, Metabolic Activation: HAMSTER, LIVER, S-9, AROCLOR 1254 (10 OR 30%), Method: PREINCUBATION inactive; negative | Test System: AMES SALMONELLA TYPHIMURIUM, Strain/Indicator: TA98, Metabolic Activation: MOUSE, LIVER, S-9, Method: STANDARD PLATE inactive; negative | Test System: AMES SALMONELLA TYPHIMURIUM, Strain/Indicator: TA98, Metabolic Activation: NONE inactive; negative | Test System: AMES SALMONELLA TYPHIMURIUM, Strain/Indicator: TA98, Metabolic Activation: NONE, Method: PREINCUBATION inactive; negative | Test System: AMES SALMONELLA TYPHIMURIUM, Strain/Indicator: TA98, Metabolic Activation: NONE, Method: STANDARD PLATE inactive; negative | Test System: AMES SALMONELLA TYPHIMURIUM, Strain/Indicator: TA98, Metabolic Activation: RAT, LIVER, S-9, AROCLOR 1254 (10%), Method: PREINCUBATION inactive; negative | Test System: AMES SALMONELLA TYPHIMURIUM, Strain/Indicator: TA98, Metabolic Activation: RAT, LIVER, S-9, AROCLOR 1254 (30%), Method: PREINCUBATION inactive; negative | Test System: AMES SALMONELLA TYPHIMURIUM, Strain/Indicator: TA98, Metabolic Activation: RAT, LIVER, S-9, AROCLOR 1254, Method: STANDARD PLATE inactive; negative | Test System: AMES SALMONELLA TYPHIMURIUM, Strain/Indicator: TA98, Metabolic Activation: S-9 inactive; negative | Test System: AMES SALMONELLA TYPHIMURIUM, Strain/Indicator: TA100, Metabolic Activation: HAMSTER, LIVER, S-9, AROCLOR 1254 (10 OR 30%), Method: PREINCUBATION inactive; negative | Test System: AMES SALMONELLA TYPHIMURIUM, Strain/Indicator: TA100, Metabolic Activation: MOUSE, LIVER, S-9, Method: STANDARD PLATE inactive; negative | Test System: AMES SALMONELLA TYPHIMURIUM, Strain/Indicator: TA100, Metabolic Activation: NONE inactive; negative | Test System: AMES SALMONELLA TYPHIMURIUM, Strain/Indicator: TA100, Metabolic Activation: NONE, Method: PREINCUBATION inactive; negative | Test System: AMES SALMONELLA TYPHIMURIUM, Strain/Indicator: TA100, Metabolic Activation: NONE, Method: STANDARD PLATE inactive; negative | Test System: AMES SALMONELLA TYPHIMURIUM, Strain/Indicator: TA100, Metabolic Activation: RAT, LIVER, S-9, AROCLOR 1254 (10%), Method: PREINCUBATION inactive; negative | Test System: AMES SALMONELLA TYPHIMURIUM, Strain/Indicator: TA100, Metabolic Activation: RAT, LIVER, S-9, AROCLOR 1254 (30%), Method: PREINCUBATION inactive; negative | Test System: AMES SALMONELLA TYPHIMURIUM, Strain/Indicator: TA100, Metabolic Activation: RAT, LIVER, S-9, AROCLOR 1254, Method: STANDARD PLATE inactive; negative | Test System: AMES SALMONELLA TYPHIMURIUM, Strain/Indicator: TA100, Metabolic Activation: S-9 inactive; negative | Test System: AMES SALMONELLA TYPHIMURIUM, Strain/Indicator: TA1535, Metabolic Activation: HAMSTER, LIVER, S-9, AROCLOR 1254 (10 OR 30%), Method: PREINCUBATION inactive; negative | Test System: AMES SALMONELLA TYPHIMURIUM, Strain/Indicator: TA1535, Metabolic Activation: MOUSE, LIVER, S-9, Method: STANDARD PLATE inactive; negative | Test System: AMES SALMONELLA TYPHIMURIUM, Strain/Indicator: TA1535, Metabolic Activation: NONE inactive; negative | Test System: AMES SALMONELLA TYPHIMURIUM, Strain/Indicator: TA1535, Metabolic Activation: NONE, Method: PREINCUBATION inactive; negative | Test System: AMES SALMONELLA TYPHIMURIUM, Strain/Indicator: TA1535, Metabolic Activation: NONE, Method: STANDARD PLATE inactive; negative | Test System: AMES SALMONELLA TYPHIMURIUM, Strain/Indicator: TA1535, Metabolic Activation: RAT, LIVER, S-9, AROCLOR 1254 (10%), Method: PREINCUBATION inactive; negative | Test System: AMES SALMONELLA TYPHIMURIUM, Strain/Indicator: TA1535, Metabolic Activation: RAT, LIVER, S-9, AROCLOR 1254 (30%), Method: PREINCUBATION inactive; negative | Test System: AMES SALMONELLA TYPHIMURIUM, Strain/Indicator: TA1535, Metabolic Activation: RAT, LIVER, S-9, AROCLOR 1254, Method: STANDARD PLATE inactive; negative | Test System: AMES SALMONELLA TYPHIMURIUM, Strain/Indicator: TA1535, Metabolic Activation: S-9 inactive; negative | Test System: AMES SALMONELLA TYPHIMURIUM, Strain/Indicator: TA1537, Metabolic Activation: MOUSE, LIVER, S-9, Method: STANDARD PLATE inactive; negative | Test System: AMES SALMONELLA TYPHIMURIUM, Strain/Indicator: TA1537, Metabolic Activation: NONE inactive; negative | Test System: AMES SALMONELLA TYPHIMURIUM, Strain/Indicator: TA1537, Metabolic Activation: NONE, Method: STANDARD PLATE inactive; negative | Test System: AMES SALMONELLA TYPHIMURIUM, Strain/Indicator: TA1537, Metabolic Activation: RAT, LIVER, S-9, AROCLOR 1254, Method: STANDARD PLATE inactive; negative | Test System: AMES SALMONELLA TYPHIMURIUM, Strain/Indicator: TA1537, Metabolic Activation: S-9 inactive; negative | Test System: AMES SALMONELLA TYPHIMURIUM, Strain/Indicator: TA1538, Metabolic Activation: MOUSE, LIVER, S-9, Method: STANDARD PLATE inactive; negative | Test System: AMES SALMONELLA TYPHIMURIUM, Strain/Indicator: TA1538, Metabolic Activation: NONE, Method: STANDARD PLATE inactive; negative | Test System: AMES SALMONELLA TYPHIMURIUM, Strain/Indicator: TA1538, Metabolic Activation: RAT, LIVER, S-9, AROCLOR 1254, Method: STANDARD PLATE inactive; negative | Test System: E. COLI, Strain/Indicator: WP2 UVRA, Metabolic Activation: HAMSTER, LIVER, S-9, AROCLOR 1254, Method: STANDARD PLATE inactive; negative | Test System: E. COLI, Strain/Indicator: WP2 UVRA, Metabolic Activation: HAMSTER, LIVER, S-9, Method: STANDARD PLATE inactive; negative | Test System: E. COLI, Strain/Indicator: WP2 UVRA, Metabolic Activation: MOUSE, LIVER, S-9, AROCLOR 1254, Method: STANDARD PLATE inactive; negative | Test System: E. COLI, Strain/Indicator: WP2 UVRA, Metabolic Activation: MOUSE, LIVER, S-9, Method: STANDARD PLATE inactive; negative | Test System: E. COLI, Strain/Indicator: WP2 UVRA, Metabolic Activation: NONE inactive; negative | Test System: E. COLI, Strain/Indicator: WP2 UVRA, Metabolic Activation: NONE, Method: STANDARD PLATE inactive; negative | Test System: E. COLI, Strain/Indicator: WP2 UVRA, Metabolic Activation: RAT, LIVER, S-9, AROCLOR 1254, Method: STANDARD PLATE inactive; negative | Test System: E. COLI, Strain/Indicator: WP2 UVRA, Metabolic Activation: RAT, LIVER, S-9, Method: STANDARD PLATE inactive; negative | Test System: E. COLI, Strain/Indicator: WP2 UVRA, Metabolic Activation: S-9 inactive; negative
